Data as given in patent publication US12031160B2, “Method for the production of glufosinate-ammonium” (ZHEJIANG UNIVERSITY OF TECHNOLOGY, priority 2018, dated 2024).

What was measured:
[1] = target: Pseudomonas moorei glufosinate-ammonium dehydrogenase E3 (PPTGDH, PPTGDHE3, WP_090325311.1), wild type, SEQ ID NO: 6 (Pseudomonas moorei, UniProt A0A1H1HZ48); test: Kinetic parameters of purified original glufosinate-ammonium dehydrogenase PPTGDH; settings: pH 7.4, 35° C.
Experimental: (§1) 1. […] The mutant proteins were purified by Ni-NTA column(1.6×10 cm, Bio-Rad, the USA), and the specific operations were carried out as follows: (1)equilibrate a Ni-NTA column with 5 column volumes of a binding buffer(pH 8.0, 50 mM sodium phosphate buffer containing 0.3 M NaCl) until the baseline is steady; (2)load the sample with a flow rate of 1 mL/min with the amount of the loading sample of 25-40 mg/mL, thereby attaching the target protein to the Ni-NTA column; (3)wash the column with 6 column volumes of buffer A (pH 8.0, 50 mM sodium phosphate buffer containing 0.3 M NaCl and 30 mM imidazole) at a flow rate of 1 mL/min until the baseline is steady; (4)wash the column with buffer B (pH 8.0, 50 mM sodium phosphate buffer containing 0.3 M NaCl and 500 mM imidazole) at a flow rate of 1 mL/min, collect the target protein and dialyze overnight in a pH 7.5, 20 mM phosphate buffer, thereby obtaining the pure glufosinate-ammonium dehydrogenase; and (5)wash the Ni-NTA column with 5 column volumes of a binding buffer(pH 8.0, 50 mM sodium phosphate buffer containing 0.3 M NaCl) until the baseline is steady, and store the Ni-NTA column in 5 column volumes of ultrapure water containing 20% ethanol.

[2] = target: Pseudomonas moorei glufosinate-ammonium dehydrogenase E3 (SEQ ID NO: 6) variant PPTGDH-L107R-F188P-G239K-F357G, SEQ ID NO: 9 (Pseudomonas moorei, UniProt A0A1H1HZ48, F188P/F357G/G239K/L107R); test: Kinetic parameters of purified mutant PPTGDH-L107R-F188P-G239K-F357G
Experimental: as §1

## CP(=O)(O)CCC(=O)C(=O)O [PPO, 2-carbonyl-4-[(hydroxy)(methyl)phosphinoyl]-butyric acid]
[1]
  kcat/Km^B (PPO): 15220 M⁻¹ s⁻¹
[2]; mutant vs original enzyme
  catalytic efficiency kcat/Km^B (PPO), times higher than that of the original enzyme: 22.19 times
[2]; pH 7.4, 35° C.
  kcat/Km^B (PPO): 337730 M⁻¹ s⁻¹

## NC(=O)C1=CN([C@@H]2O[C@H](COP(=O)(O)OP(=O)(O)OC[C@H]3O[C@@H](n4cnc5c(N)ncnc54)[C@H](OP(=O)(O)O)[C@@H]3O)[C@@H](O)[C@H]2O)C=CC1 [NADPH]
[2]; mutant vs original enzyme
  catalytic efficiency for the coenzyme NADPH, times higher than that of the original enzyme: 34.61 times
[2]; pH 7.4, 35° C.
  kcat/Km^A (NADPH): 1.3703e+07 M⁻¹ s⁻¹
